The text below walks through data of patent US20090209457A1, “TREATMENT OF ANTI-ERYTHROPOIETIN ANTIBODY-MEDIATED DISORDERS WITH SYNTHETIC PEPTIDE-BASED EPO RECEPTOR AGONISTS” (Affymax, Inc., priority 2008, published 2009).

“Also recorded” adds a separate entry of the source. Bridge positions count the residues as written; N and C are the ends. Square brackets hold non-standard residues; d marks the D form. Ends that are not written are not given here. 1Nal = N[C@@H](Cc1cccc2ccccc12)C(=O)O; Sar = CNCC(=O)O

For data set [1], the system named is bone marrow cultures established from healthy human donors. Description: Bone marrow cultures with patient serum (erythroid colonies). It counts as cell-based. As to the method:
(§1) The anti-Peptide I antibody assay was performed in the laboratories of the Sponsor using an ELISA method, with a sensitivity of 300 ng/mL [Fan Q., et al. (2006) Exp. Hematol. 34: 1303-11; Woodburn K W, et al. (2007) Exp. Hematol. 35: 1201-8]. Anti-EPO antibodies were measured by radioimmune precipitation assay. To confirm that the patient's antibodies were not cross-reactive with Peptide I, serum from three patients was tested in bone marrow cultures (established from healthy human donors, as previously described [Verhelst D, et al. (2004) Lancet 363: 1768-71]). Culture conditions included 20% of either fetal calf serum as a control or one of the study patient's serum. Cultures included either 1 IU/mL of recombinant human EPO or 0.55 μg/mL of Peptide I (a concentration previously shown to be equivalent to 1 IU/mL of EPO for erythroid growth). Erythroid colonies were counted on day 7.

The next data set concerns rat model of PRCA. Description: Rat model of PRCA (anti-EPO antibody-induced anemia). It counts as in vivo. As to the method:
The efficacy of Peptide I to correct anemia due to recombinant EPO anti-body induced PRCA was assessed in a rat model of PRCA. […] The rat model of PRCA consisted of induction of anti-EPO antibodies in a rat to yield a model of PRCA. Subsequent to inducing PRCA in rats, the erythropoietic activity of Peptide I, compared to rats treated with recombinant EPO, was evaluated in the rat model of PRCA following weekly administrations of Peptide I or recombinant EPO.
Additionally, administration of Peptide I to rats positive for anti-EPO antibodies allowed evaluation of Peptide I to correct PRCA-induced anemia.
Experiments were also conducted in anemic anti-EPO antibody positive rats to determine if normal hemoglobin levels could be maintained. The anemic anti-EPO antibody positive rats were treated with Peptide I approximately every 4 weeks for a total of additional seven injections. Hemoglobin levels in the Peptide I and vehicle-treated antibody-positive rats were compared to concurrent controls.
EPO-induced PRCA in humans and rats characterized by severe anemia associated with the presence of anti-EPO antibodies, an absence of reticulocytes, and limited bone marrow erythroid precursors with concomitant presence of normal numbers of granulocytic and megakaryocytic lineages. Peptide I corrected the EPO-induced anemia in these animals.

Data set [2] concerns anti-Peptide I antibodies. Description: Anti-Peptide I antibody assay (ELISA) in patient serum. More on the design: species or system human. The following applies: 10 patients, after up to 10 doses. As to the method: as §1
Data set [3] concerns patients with anti-EPO antibody-mediated PRCA. Briefly: Open-label clinical study in patients with anti-EPO antibody-mediated PRCA. It is filed as in vivo, human. As to the method:
An open-label, prospective, non-randomized study was conducted to investigate the ability of Peptide I to correct anemia in patients with PRCA that is characterized by anti-EPO antibodies. The pre-specified primary objective was to determine if Peptide I could increase and maintain hemoglobin levels above 11 g/dL (consistent with both U.S.[KDOQI Clinical Practice Guidelines and Clinical Practice Recommendations for Anemia in Chronic Kidney Disease (2006) Am. J. Kidney Dis. 47 (Suppl 3):S11-S145.] and European Guidelines [Locatelli F, et al. (2004) Nephrol. Dial. Transplant 19 (Suppl 2): ii1-47.]) without the need for red cell transfusions in patients with anti-EPO antibody-mediated PRCA during 6 months of treatment. The effect of Peptide I on reducing red cell transfusions, the time required to correct anemia in the absence of transfusions, dose requirements, and safety were also assessed.
Patients older than 18 years of age were eligible for inclusion if they had CKD (with or without the need for dialysis) and PRCA or red cell hypoplasia due to anti-EPO antibodies. Patients were required to have a documented history of: (1) a decrease in hemoglobin concentration while receiving a stable or increased dose of a protein-based ESA, or red cell transfusion dependency; (2) reticulocyte counts of <30×10^9/L; (3) a bone marrow examination showing severe erythroid hypoplasia or aplasia; and (4) a confirmed positive test for anti-EPO antibodies. Patients may have received immunosuppressive therapy previously, but these medications were to be discontinued for at least three months prior to enrollment. At the time of enrollment, patients had to either be transfusion-dependent, or have a hemoglobin concentration persistently below 11 g/dL without ESA therapy. The presence of another hematological disorder, another known cause of PRCA, and current treatment with ESA or immunosuppressive therapy represented the major exclusion criteria.
Blood samples were taken for baseline measurement of the complete blood count, reticulocyte count, urea, electrolytes, liver function tests, iron status, anti-EPO antibodies, and anti-Peptide I antibodies. Upon meeting study eligibility criteria, treatment with Peptide I was initiated at a dose of 0.05 mg/kg by SC injection Q4W. Hemoglobin and reticulocyte counts were performed weekly, while samples were taken monthly for other safety laboratory parameters including urea, electrolytes, liver function tests and anti-EPO and anti-Peptide I antibodies. The frequency and dose of each injection was adjusted based on the patient's hemoglobin response to achieve a hemoglobin level in the target range of 11-13 g/dL. This target was subsequently changed to 11-12 g/dL in early 2007 following publication of the CREATE [Drueke T B, et al. (2006) N. Engl. J. Med. 355: 2071-84] and CHOIR [Singh A K, et al. (2006) N. Engl. J. Med 355: 2085-98] studies, in line with subsequent KDOQI recommendations [KDOQI Clinical Practice Guideline and Clinical Practice Recommendations for Anemia in Chronic Kidney Disease (2007) Am. J. Kidney Disease 50: 471-530].
The study was designed to enroll 5-20 patients with anti-EPO antibody mediated PRCA based on the Investigators' estimate of the maximum number of potentially eligible patients with access to the study centers. Patients were to be treated for an initial 6-month period. […] All patients who received at least one dose of Peptide I were included in the safety analysis, and those with at least one hemoglobin value following dosing were included in the efficacy analyses. All safety and efficacy results were summarized using descriptive statistics and data are presented as medians, 25th and 75th percentiles, and ranges.

For the substance “PEGylated homodimer of peptide monomers (AcG)GLYACHMGPIT(1-nal)VCQPLR(MeG)K (SEQ ID NO: 2), EPO-R agonist (Ac-GGLYACHMGPIT[1Nal]VCQPLR[Sar]K; disulfide 6-15 (inferred); not fully specified (residue 21); printed as (AcG)GLYACHMGPIT(1-nal)VCQPLR(MeG)K; also: PEGylated) [Peptide I]”, the “erythroid growth in presence of patient serum” value in data set [1] (20% serum of three patients, 1 IU/mL EPO or 0.55 μg/mL Peptide I, colonies counted day 7) is “erythroid differentiation was observed”. Besides, in data set [1] (previously shown), the “concentration equivalent to 1 IU/mL of EPO for erythroid growth” value came out at 0.55 µg/mL. Besides, in the data set on rat model of PRCA (anemic anti-EPO antibody-positive rats, repeat administrations every 4 weeks), the “maintenance of hemoglobin levels” value is recorded as “sustained correction of hemoglobin levels”. For the same substance, the reticulocytosis result with rat model of PRCA (anti-EPO antibody-positive anemic rats, compared to recombinant EPO treated rats) is on record as “significantly increased”. Also, the hemoglobin levels entry in the data set on rat model of PRCA (anti-EPO positive animals versus antibody-negative control rats) is recorded as “greater than hemoglobin levels achieved in the anti-EPO antibody-negative control rats”. In the data set on rat model of PRCA (rat model of PRCA), the “correction of antibody-induced anemia” value is on record as “corrected antibody-induced anemia; also recorded: reversed”. Further, the “anti-Peptide I antibodies in serum” value in data set [2] is on record as “No anti-Peptide I antibodies were detected”. The “patients with hemoglobin response (above 11 g/dL without transfusion)” value in data set [3] (10 patients, median follow up 13.5 months, SC Q4W) was found to be 10 patients. Further, the tolerability result in data set [3] (SC injections) is “generally well-tolerated”. The “patients receiving red blood cell transfusions” value was “one” in data set [3] (as of month 4); “no patient” in data set [3] (at month 6); “one” in data set [3] (during month 7 (prior to kidney transplant surgery)); 3 patients in data set [3] (during the first month); “no patient” in data set [3] (from month 8 onwards). For the same substance, the median ferritin levels in data set [3] (at data cut-off, baseline 1,356 μg/L) is given as 1,243 μg/L. Further, the “median TSAT” value in data set [3] (at data cut-off, baseline 70.9%) was 50.0%. The substance also registered a median hemoglobin in data set [3] (by 6 months, baseline 9.7 g/dL) of 11.6 g/dL. The “median time to hemoglobin response” value in data set [3] (human, in vivo) amounted to 10 weeks. In data set [3] (human, in vivo), the “serious adverse events related to study drug” value is reported as “none of these events was considered related to study drug; also recorded: no reports of serious adverse events related to Peptide I”. Besides, in data set [3] (in 2 patients), the serious adverse events entry is “Four”. Besides, in data set [3] (in 10 patients), the adverse events reported came out at 108 events. In data set [3] (of 108 events), the “adverse events at least possibly related to Peptide I” value is on record as 4 events. Besides, the “adverse events mild or moderate in severity” value in data set [3] (of 108 events) came to 97 events.
